From patent US20090035306A1 (KALYPSYS, INC., priority 2006, published 2009)

What was measured:
Mice [1] = test: Glucose tolerance test (GTT), glucose disposal; type: in vivo, mouse; conditions: 30 mg/kg, 2 g/kg dextrose orally at time 0, time 60 min
Mice [2] = test: Glucose-stimulated insulin secretion (GTT/insulin test, insulin ELISA); type: in vivo, mouse; conditions: 30 mg/kg; for Plasma Insulin, AUC, Mean: glucose-stimulated insulin secretion, in ng·min/mL (unit assumed)
Experimental: Vehicle is CMC-Tween: 0.5% CMC+0.25% Tween 20 at an appropriate ml/kg. Dextrose dose per mouse=2 g dextrose/kg made from 0.5 g/ml stock dextrose solution. Compound 1 dose per mouse=30 mg/kg in CMC/Tween vehicle made from 4 mg/mL stock solution by adding 50 μL DMSO to 20 mg Compound 1, stirring to make a paste, adding 1 ml CMC/Tween with stirring, sonicating for 8 minutes on energy 05, and adjusting to 5 ml with CMC/Tween.
Mice (5 per group) were fasted at 6 am for an experiment at noon. Blood glucose was measured from tail nick blood using an Accucheck—Compact Monitoring Kit (Roche Diagnostics, Indianapolis Ind.). Baseline (time=−15 min) blood glucose concentration was determined for all mice and tail nick blood samples were collected. 2 g/kg dextrose (Hospira, Lake Forest, Ill.) was administered orally at time 0. […] Terminal blood samples were collected from portal vein draws in three mice at t=20. Blood plasma was harvested from blood collected in EDTA microvettes by centrifugation (10 min at […]). Plasma was stored in −80 C freezer to be analyzed for other chemistry measurements.
A Mercodia ultrasensitive mouse insulin ELISA kit (Mercodia AB, Uppsala, Sweden) was used in a 96-well coated plate. All reagents and samples were brought to room temperature before use, Calibrator concentrations were 0.07, 0.13, 0.25, 0.63, 1.9, 5.2, 13.0, and 64.0 μg/L, and a calibration curve was prepared for each assay run. To 25 μL calibrator 0 in each well was added 5 μL calibrators and 5 μL of samples/standards in duplicate, then 50 μL dilute enzyme conjugate 11× in enzyme conjugate buffer. This was incubated on a shaker for 2 hours at room temperature (18-25° C.), and each well was washed 5 times in 350 μL wash buffer and aspirated completely. After final wash, plate was inverted and tapped firmly against absorbent paper. 200 μL substrate TMB was added to each well and incubated for 30 minutes. 50 μL stop solution was added to each well, and the plate was placed on the shaker for about 5 seconds to ensure mixing of substrate and stop Solution. Absorbance was measured at 450 nm.

## O=c1c2ccccc2nc(-c2ccc(F)cc2)n1NCc1ccc(Br)cc1 [Example 1]
Mice [1]
  Plasma Glucose, Mean: 294.2 mg/dL
Mice [2]; 2 g/kg dextrose orally at time 0, time 0 min
  Plasma Insulin, Mean: 1.56 ng/mL
Mice [2]; 2 g/kg dextrose orally at time 0, time 3 min
  Plasma Insulin, Mean: 2.35 ng/mL
Mice [2]; 2 g/kg dextrose orally at time 0, time 6 min
  Plasma Insulin, Mean: 3.24 ng/mL
Mice [2]; 2 g/kg dextrose orally at time 0, time 9 min
  Plasma Insulin, Mean: 3.94 ng/mL
Mice [2]; 2 g/kg dextrose orally at time 0, time 12 min
  Plasma Insulin, Mean: 4.18 ng/mL
Mice [2]; 2 g/kg dextrose orally at time 0, time 15 min
  Plasma Insulin, Mean: 4.05 ng/mL
Mice [2]; 2 g/kg dextrose orally at time 0, time 20 min
  Plasma Insulin, Mean: 3.79 ng/mL
Mice [2]; 2 g/kg dextrose orally at time 0, time 30 min
  Plasma Insulin, Mean: 1.82 ng/mL
Mice [2]; 2 g/kg dextrose orally at time 0, time 60 min
  Plasma Insulin, Mean: 1.23 ng/mL
Mice [2]; 2 g/kg dextrose orally at time 0, time 120 min
  Plasma Insulin, Mean: 1.17 ng/mL
Mice [2]; 2 g/kg dextrose orally at time 0, time −15 min (baseline)
  Plasma Insulin, Mean: 1.78 ng/mL
Mice [2]; 0-15 min
  Plasma Insulin, AUC, Mean: 35.15
Mice [2]; 0-30 min
  Plasma Insulin, AUC, Mean: 68.39
